Assay results published in patent US11285227B2, “Trifunctional constructs with tunablepharmacokinetics useful in imaging and anti-tumor therapies” (CORNELL UNIVERSITY, priority 2017, dated 2022).

Key:
[1] = tested on: LNCaP xenograft tumor-bearing mice; test: Biodistribution of 225Ac-macropa-RPS-070 in LNCaP xenograft mice; type: in vivo; conditions: 4-96 h; no accumulation in liver, spleen, bone
Description: Cell Culture. […] Cell culture supplies were from Invitrogen unless otherwise noted.
Inoculation of Mice with Xenografts. All animal studies were approved by the Institutional Animal Care and Use Committee of Weill Cornell Medicine and were undertaken in accordance with the guidelines set forth by the USPHS Policy on Humane Care and Use of Laboratory Animals. Animals were housed under standard conditions in approved facilities with 12 h light/dark cycles. Food and water was provided ad libitum throughout the course of the studies. Hairless male nu/nu mice were purchased from the Jackson Laboratory. For inoculation in mice, LNCaP cells were suspended at 4×10^7 cells/mL in a 1:1 mixture of PBS:Matrigel (BD Biosciences). Each mouse was injected in the left flank with 0.25 mL of the cell suspension. Biodistributions were conducted when tumors were in the range 100-400 mm^3.
Biodistribution of ^225Ac-macropa-RPS-070 in LNCaP xenograft mice. […] Tissues were weighed and counted on a 2470 Wizard Automatic Gamma Counter (Perkin Elmer). 1% ID/mL samples were counted prior to and following each set of tissue samples to enable decay correction to be undertaken. Counts were corrected for decay and for activity injected, and tissue uptake was expressed as percent injected dose per gram (% ID/g). Standard error measurement was calculated for each data point.

[2] = target: T1, PSMA on LNCaP cells (Homo sapiens, UniProt Q04609); test: cell-based
Description: The PSMA expressing human prostate cancer cell line, LNCaP, was obtained from the American Type Culture Collection. […] LNCaP cells were maintained in RPMI-1640 medium supplemented with 10% fetal bovine serum (Hyclone), 4 mM L-glutamine, 1 mM sodium pyruvate, 10 mM N-2-hydroxyethylpiperazine-N-2-ethanesulfonic acid (HEPES), 2.5 mg/mL D-glucose, and 50 μg/mL gentamicin in a humidified incubator at 37° C./5% CO2. Cells were removed from flasks for passage or for transfer to 12-well assay plates by incubating them with 0.25% trypsin/ethylenediaminetetraacetic acid (EDTA).
Briefly, LNCaP cells were plated 72 h prior to the experiment to achieve a density of approximately 5×10^5 cells/well (in triplicate) in RPMI-1640 medium supplemented with 0.25% bovine serum albumin. The cells were incubated for 2 h with 1 nM ^99mTc-MIP-1427 in RPMI-1640 medium containing 0.00125% w/v bovine serum albumin [3] in the presence of 0.001-10,000 nM test compounds. Radioactive incubation media was then removed by pipette and the cells were washed twice using 1 mL ice-cold PBS 1× solution. Cells were harvested from the plates following treatment with 1 mL 1M NaOH and transferred to tubes for radioactive counting using a 2470 Wizard^2 Automatic Gamma Counter (Perkin Elmer). […] IC50 values were determined by fitting the data points to a sigmoidal Hills1 curve in Origin software.

[3] = target: T1, PSMA on LNCaP cells; design: host or cells: LNCaP; conditions: binding to PSMA on LNCaP cells; cited from earlier work

T1 sequence (Q04609 whole entry): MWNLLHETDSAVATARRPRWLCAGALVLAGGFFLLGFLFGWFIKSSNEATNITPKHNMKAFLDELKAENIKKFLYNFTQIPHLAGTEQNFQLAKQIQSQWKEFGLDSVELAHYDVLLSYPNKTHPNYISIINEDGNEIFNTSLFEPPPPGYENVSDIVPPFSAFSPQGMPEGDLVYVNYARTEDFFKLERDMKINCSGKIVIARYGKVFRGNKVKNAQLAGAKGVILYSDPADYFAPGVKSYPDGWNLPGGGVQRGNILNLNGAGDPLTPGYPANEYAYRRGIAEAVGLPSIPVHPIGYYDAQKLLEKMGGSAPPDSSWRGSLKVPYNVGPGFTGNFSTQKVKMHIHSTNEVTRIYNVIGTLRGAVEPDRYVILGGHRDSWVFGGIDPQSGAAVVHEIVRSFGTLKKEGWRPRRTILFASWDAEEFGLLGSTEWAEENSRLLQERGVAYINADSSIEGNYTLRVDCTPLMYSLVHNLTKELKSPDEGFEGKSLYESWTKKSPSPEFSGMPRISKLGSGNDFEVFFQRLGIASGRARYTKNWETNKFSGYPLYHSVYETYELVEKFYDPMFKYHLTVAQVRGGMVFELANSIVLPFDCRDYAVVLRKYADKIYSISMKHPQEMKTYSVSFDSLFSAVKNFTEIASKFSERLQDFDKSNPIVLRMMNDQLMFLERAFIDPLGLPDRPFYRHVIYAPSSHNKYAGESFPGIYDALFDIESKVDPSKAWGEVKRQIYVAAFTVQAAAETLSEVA

O=C(O)CC[C@H](NC(=O)N[C@@H](CCCCNC(=O)Nc1cccc(-c2cn(CCOCCOCCOCCOCCOCCOCCC(=O)N[C@@H](CCCCNC(=S)Nc3cc(CN4CCOCCOCCN(Cc5cccc(C(=O)O)n5)CCOCCOCC4)nc(C(=O)O)c3)C(=O)N[C@@H](CCCCNC(=O)Cc3ccc(I)cc3)C(=O)O)nn2)c1)C(=O)O)C(=O)O [macropa-RPS-070, (((S)-1-Carboxy-5-(3-(3-(1-((23S,26S)-26-carboxy-23-(4-(3-(2-carboxy-6-((16-((6-carboxypyridin-2-yl)methyl)-1,4,10,13-tetraoxa-7,16-diazacyclooctadecan-7-yl)methyl)pyridin-4-yl)thioureido)butyl)-33-(4-iodophenyl)-21,24,32-trioxo-3,6,9,12,15,18-hexaoxa-22,25,31-triazatritriacontyl)-1H-1,2,3-triazol-4-yl)phenyl)ureido)pentyl)carbamoyl)-L-glutamic acid]
Retention of 225Ac in vivo [1]: can stably retain ^225Ac in vivo over several days

O=C(O)CC[C@H](NC(=O)N[C@@H](CCCCNC(=O)Nc1cccc(-c2cn(CCOCCOCCOCCC(=O)N[C@@H](CCCCNC(=S)Nc3cc(CN4CCOCCOCCN(Cc5cccc(C(=O)O)n5)CCOCCOCC4)nc(C(=O)O)c3)C(=O)NCCOCCOCCOCCOCCOCCOCCOCCOCCC(=O)N[C@@H](CCCCNC(=O)CCCc3ccc(I)cc3)C(=O)O)nn2)c1)C(=O)O)C(=O)O [RPS-074, (((S)-1-Carboxy-5-(3-(3-(1-((14S,45S)-45-carboxy-14-(4-(3-(2-carboxy-6-((16-((6-carboxypyridin-2-yl)methyl)-1,4,10,13-tetraoxa-7,16-diazacyclooctadecan-7-yl)methyl)pyridin-4-yl)thioureido)butyl)-54-(4-iodophenyl)-12,15,43,51-tetraoxo-3,6,9,19,22,25,28,31,34,37,40-undecaoxa-13,16,44,50-tetraazatetrapentacontyl)-1H-1,2,3-triazol-4-yl)phenyl)ureido)pentyl)carbamoyl)-L-glutamic acid]
IC50 [2]: 12 ± 3.4 nM

^99mTc-((7S,12S,16S)-1-(1-(carboxymethyl)-1H-imidazol-2-yl)-2-((1-(carboxymethyl)-1H-imidazol-2-yl)methyl)-9,14-dioxo-2,8,13,15-tetraazaoctadecane-7,12,16,18-tetracarboxylic acid technetium tricarbonyl complex) [^99mTc-MIP-1427]
Kd [3]: 0.64 ± 0.46 nM
